Assay results taken from patent US20240287082A1, “NEW BENZODIAZEPINE DERIVATIVES AS GABA A GAMMA1 PAM” (Hoffmann-La Roche Inc., priority 2021, published 2024).
Where two headings read alike, the source gives them in different places.

Key:
[1] = biological target: human GABAA α2β2γ1 receptor (Homo sapiens (Human), UniProt P47869+Q8N1C3); assay: Radioligand binding assay, competition for [3H]RO7239181, γ1-containing GABAA subtype α2β2γ1; settings: for γ2/γ1 Selectivity Ratio: Ki α1β3γ2 (nM)/Ki α2β2γ1 (nM); for LogSel: Log[Ki α1β3γ2 (nM)/Ki α2β2γ1 (nM)]
[2] = biological target: human GABAA α1β2γ1 receptor (Homo sapiens (Human), UniProt P14867+Q8N1C3); assay: Radioligand binding assay, competition for [3H]RO7239181, γ1-containing GABAA subtype α1β2γ1; settings: membranes of HEK293F cells, [3H]RO7239181 20-30 nM, mean of two determinations
Procedure: The affinity of compounds at GABAA γ1 subunit-containing receptors was measured by competition for [^3H]RO7239181 (67.3 Ci/mmol; Roche) binding to membranes from HEK293F cells (ThermoFisher R^79007) expressing human (transiently transfected) receptors of composition α5β2γ1, α2β2γ1, α1β2γ1.
Harvested pellets from HEK293F cells expressing the different GABAA receptor subtypes were resuspended in Mannitol Buffer pH 7.2-7.4 (Mannitol 0.29M, Triethylamine 10 mM, Acetic acid 10 mM, EDTA 1 mM plus protease inhibitors (20 tablets Complete, Roche Diagnostics Cat. No. 05 056 489 001 per liter)), washed two times and then resuspended at 1:10 to 1:15 dilution in the same buffer. Cell disruption was performed by stirring the suspension in a Parr vessel #4637 at 435 psi for 15 minutes, and then the suspensions were centrifuged at 1000×g for 15 minutes at 4° C. (Beckman Avanti J-HC: rotor JS-4.2). The supernatant (S1) was transferred in a 21 Schott flask and the pellet (P1) was resuspended with Mannitol Buffer up to 175 ml. The resuspended pellet was transferred into a 250 ml Corning centrifugal beaker and centrifuged at 1500×g for 10 minutes at 4° C. (Beckman Avanti J-HC: rotor JS-4.2). The supernatant (S1) was then transferred in the 21 Schott flask and the pellet was discarded. The supernatants (S1) were centrifuged in 500 ml Beckman polypropylene centrifugal beaker at 15 000×g for 30 minutes at 4° C. (Beckman Avanti J-20 XP: rotor JLA-10.500). The pellet (P2) was resuspended with Mannitol Buffer 1:1 and frozen at −80° C. The supernatant (S2) was centrifuged in 100 ml Beckman polypropylene centrifugal tubes at 48000×g for 50 minutes at 4° C. (Beckman Avanti J-20 XP: rotor JA-18). The supernatant (S3) was discarded and the pellet (P3) was resuspended with 1:1 Mannitol Buffer. The P2 and P3 protein concentration was determined with the BIORAD Standard assay method with bovine serum albumin as standard and measured on the NANO-Drop 1000. The membrane suspension was aliquots (500 μl per tube) and stored at −80° C. until required.
Membrane homogenates were resuspended and polytronised (Polytron PT1200E Kinematica AG) in Potassium Phosphate 10 mM, KCl 100 mM binding buffer at pH 7.4 to a final assay concentration determined with a previous experiment.
Assays were incubated to equilibrium for 1 hour at 4° C. and then, membranes were filtered onto unifilter (96-well white microplate with bonded GF/C filters preincubated 20-50 minutes in 0.3% Polyethylenimine) with a Filtermate 196 harvester (Packard BioScience) and washed 4 times with cold Potassium Phosphate 10 mM pH 7.4, KCl 100 mM binding buffer. After anhydrousing, filter-retained radioactivity was detected by liquid scintillation counting. Ki values were calculated using Excel-Fit (Microsoft) and are the means of two determinations.

[3] = biological target: human GABAA α1β3γ2 receptor (Homo sapiens (Human), UniProt P14867+P18507); assay: Radioligand binding assay, competition for [3H]Flumazenil, γ2-containing GABAA subtype α1β3γ2
[4] = read-out: Ki h-GABAA α2β2γ1, Table 2, membranes of HEK293F cells, [3H]RO7239181

## O=c1ccn2c(n1)CN=C(c1ccccc1F)c1c-2ccc(Cl)c1Cl [Example 1, 8,9-dichloro-7-(2-fluorophenyl)-5H-pyrimido[1,2-a][1,4]benzodiazepin-3-one]
[1]
  Ki: 57.9 nM
  γ2/γ1 Selectivity Ratio: 12.4
  LogSel: 1.09
[1]; [4]
  Ki: 57.9 nM
[2]
  Ki: 63.4 nM
[3]
  Ki: 716 nM

## C[C@@H]1N=C(c2c(F)cccc2F)c2c(ccc(Br)c2Cl)-n2ccc(=O)nc21 [Example 13, (5S)-9-bromo-8-chloro-7-(2,6-difluorophenyl)-5-methyl-5H-pyrimido[1,2-a][1,4]benzodiazepin-3-one]
[1]
  Ki: 11.4 nM
  γ2/γ1 Selectivity Ratio: 53.3
  LogSel: 1.73
[1]; [4]
  Ki: 11.4 nM
[2]
  Ki: 17.6 nM
[3]
  Ki: 607 nM
